Results: patent US12036234B2, “Heparin conjugated to collagen-binding peptides for targeting to biological and synthetic tissues” (Northwestern University, priority 2017, dated 2024)
“Also recorded” adds a separate entry of the source. Ends that are not written are not given here.

Assays:
collagen II = test: Peptide binding to ECM protein coated plates (streptavidin-594 fluorescence); design: species or system chicken; details: biotinylated peptide
Method: (§1) Peptide and ECM Binding Specificity. Collagens I, II, III, and IV, fibronectin, laminin, and Matrigel were coated onto 96-well black plates at 10 μg/cm^2. Biotinylated CBP or CBPi were added to coated plates at 0, 1, 10, 100, and 1000 μM overnight at 4° C., after which the plates were washed three times with PBS. Fluorescent streptavidin-594 (4 μg/mL) was added to each well and incubated at room temperature for 2 h, then thoroughly washed with PBS. The plates were read with a fluorescence microplate reader for fluorescence intensity (Ex 591 nm, Em 614 nm). All data were normalized to the background fluorescence intensity of Streptavidin-594 alone directed at each coated protein.

fibronectin = test: as above; design: species or system human; details: biotinylated peptide
Method: as §1

collagen III = biological target: T1, collagen III (Homo sapiens, UniProt P02461); test: as above; details: biotinylated peptide
T1 construct: purchased Sigma-Aldrich
T1 sequence (P02461 154-1221 limits assumed): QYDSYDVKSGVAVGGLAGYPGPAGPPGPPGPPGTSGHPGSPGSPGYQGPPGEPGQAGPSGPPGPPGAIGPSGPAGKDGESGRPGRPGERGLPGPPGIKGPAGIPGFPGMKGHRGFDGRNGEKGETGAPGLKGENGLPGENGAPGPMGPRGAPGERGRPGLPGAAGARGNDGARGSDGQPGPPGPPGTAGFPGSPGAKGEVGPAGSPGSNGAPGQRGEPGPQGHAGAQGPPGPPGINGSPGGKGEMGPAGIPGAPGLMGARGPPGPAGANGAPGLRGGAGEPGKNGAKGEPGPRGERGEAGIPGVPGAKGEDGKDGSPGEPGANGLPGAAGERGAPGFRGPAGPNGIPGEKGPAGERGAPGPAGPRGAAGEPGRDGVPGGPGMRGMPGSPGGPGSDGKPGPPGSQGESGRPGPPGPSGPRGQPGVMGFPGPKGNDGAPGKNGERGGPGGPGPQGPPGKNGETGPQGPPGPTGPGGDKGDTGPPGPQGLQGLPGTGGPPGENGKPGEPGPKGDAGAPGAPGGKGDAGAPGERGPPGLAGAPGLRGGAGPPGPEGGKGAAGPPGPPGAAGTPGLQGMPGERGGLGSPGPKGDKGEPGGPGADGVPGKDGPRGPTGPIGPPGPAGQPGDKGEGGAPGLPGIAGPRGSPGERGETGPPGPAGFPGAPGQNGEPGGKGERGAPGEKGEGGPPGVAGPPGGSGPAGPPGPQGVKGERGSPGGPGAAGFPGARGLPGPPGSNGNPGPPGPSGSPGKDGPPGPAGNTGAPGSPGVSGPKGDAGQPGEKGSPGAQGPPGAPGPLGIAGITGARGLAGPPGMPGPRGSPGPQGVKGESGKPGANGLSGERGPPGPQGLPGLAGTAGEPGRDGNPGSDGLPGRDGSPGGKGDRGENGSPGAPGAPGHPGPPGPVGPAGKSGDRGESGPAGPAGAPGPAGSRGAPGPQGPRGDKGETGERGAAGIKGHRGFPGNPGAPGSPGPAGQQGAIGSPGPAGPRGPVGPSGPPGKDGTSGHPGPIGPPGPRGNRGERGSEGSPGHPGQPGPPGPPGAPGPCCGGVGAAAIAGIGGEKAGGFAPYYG
Method: as §1

collagen I = biological target: T2, collagen I (Rattus norvegicus, UniProt P02454+P02466); test: as above; details: biotinylated peptide
T2 construct: purchased Sigma-Aldrich
Method: as §1

Matrigel = test: as above; details: 1000 μM biotinylated peptide
Method: as §1

laminin = biological target: T3, laminin (Mus musculus, UniProt P02468+P02469+P19137); test: as above; details: 1000 μM biotinylated peptide
T3 construct: purchased Sigma-Aldrich
Method: as §1

[1] = test system: collagen I and collagen IV in decellularized rat aorta ECM and renal ECM; test: Streptavidin-594 staining of biotinylated CBP on decellularized tissue; type: binding; details: biotinylated CBP at 100 μM
Source text: FIG. 7: Immunofluorescence staining of collagen I and collagen IV in decellularized rat aorta ECM (A) and renal ECM (C). Streptavidin-594 staining of biotinylated CBP on decellularized rat aorta ECM (B) and renal ECM (D). Scale bar=100 μm.
The binding between collagens (types I and IV) and CBP, is predicted to be mediated by intermolecular forces between discrete amino acids within collagen and CBP^17 that contribute to the binding specificity observed above. The molecular composition of ECM is largely heterogeneous, including fibrous proteins such as collagens, soluble proteins such as fibronectin and laminin, and proteoglycans such as heparan sulfate, keratin sulfate, and chondroitin sulfate.^18 The detailed composition of ECM proteins also varies from tissue to tissue, however, ECM from most tissue types contains collagen I (interstitial matrix) and collagen IV (basement membrane).^18 Each collagen subtype is retained in decellularized tissues, specifically vascular (FIG. 7A) and renal tissues (FIG. 7C). […] Taken together, this delivery strategy using CBP as a localizing moiety specifically targets collagens (type IV in particular) and may be used to selectively carry bioactive molecules to the vasculature where collagen IV defines the subendothelial basement membrane that forms the vascular network, including the macro- and micro-vasculatures within all tissues and organs.

[2] = test system: Human umbilical vein endothelial cells (HUVECs); test: Endothelial cell adhesion and retention on modified ECM; type: cell-based; details: 4 weeks (day 28) in culture
Method: Addition of Endothelial Cells to Modified ECM. Human umbilical vein endothelial cells (HUVECs, Lonza) at passages 3-8 were cultured in EGM-2 and used for cell seeding. The following groups of ECM vascular grafts (1 cm in length each, n=3 per group) were prepared: (1) ECM control alone without heparin or peptide; (2) ECM incubated with free, unconjugated heparin sodium (1 mg/mL); (3) ECM incubated with CBPi conjugated to heparin (1 mg/mL); and (4) ECM incubated with CBP conjugated to heparin (1 mg/mL). HUVECs were seeded twice onto the lumen of each graft (10000 cells/cm^2 at each inoculation) with a 180° rotation of the graft at 30 min after initial seeding. Recellularized grafts were maintained in culture under static condition with medium changed every 2 days.
Cell Number and Viability Measurement. Resazurin was used to assess cell number and viability of HUVECs on ECM grafts over time. 16 Resazurin sodium (44 μM in EGM-2) was added to cell-laden, ECM-modified grafts and incubated for 2 h and the fluorescence intensity (Ex 560 nm, Em 590 nm) was read. The number of cells was calculated based on the fluorescence reading of serially diluted HUVEC suspensions incubated in resazurin solution to develop a standard curve. Prior to performing each measurement, cell seeded grafts were moved to a new low-attachment, multiwell plate to eliminate off target readings from cells that may have migrated off the graft.
Cell Staining and Fluorescence Microscopy. At 4 weeks after cell seeding, each cell-seeded graft was fixed with paraformaldehyde and stained with Phalloidin-488. Fluorescence microscopy (Nikon TE2000U, Japan) was performed on the flattened luminal surface of the graft.

[3] = biological target: T4, vascular endothelial growth factor, VEGF (Homo sapiens, UniProt P15692); test: Growth factor binding to modified ECM (VEGF ELISA); details: after incubation in EGM-2 for 3 days
T4 construct: purchased Lonza (component of EGM-2 medium)
T4 sequence (P15692 27-191 isoform P15692-4): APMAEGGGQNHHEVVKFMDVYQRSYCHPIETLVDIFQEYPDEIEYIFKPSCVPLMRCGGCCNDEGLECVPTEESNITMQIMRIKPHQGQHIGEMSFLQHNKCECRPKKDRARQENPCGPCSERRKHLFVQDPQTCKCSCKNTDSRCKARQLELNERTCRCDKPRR
Method: Growth Factor Binding to Modified ECM. ECM samples treated with PBS alone, heparin alone, CBPi-heparin, or CBP-heparin were incubated in EGM-2 (containing 2 ng/mL recombinant human vascular endothelial growth factor, VEGF) for 3 days and washed with PBS to measure the degree of VEGF recruited to heparin modified ECM. ECM grafts before and after EGM-2 incubation were weighed and proteins were extracted as previously described using a urea buffer. 13 The amount of VEGF was measured using an ELISA for human and rat VEGF (Thermo Fisher, Waltham, MA).

rat platelet rich plasma = test: Platelet adhesion to modified ECM (LDH assay); type: cell-based; details: ECM treated at 1 mg/mL
Method: Platelet Adhesion. The thrombogenic properties of modified ECM were evaluated by a platelet adhesion assay described previously.^13 ECM grafts were incubated in diluted rat platelet rich plasma ([…] platelet/mL) at 37° C. for 1 h, rinsed with warm PBS, and lysed with 2% Triton-X. Lactate dehydrogenase (LDH) released into the medium was measured by an LDH assay following the manufacturer's protocol (Roche Molecular Diagnostics, Pleasanton, CA). LDH measured from lysates of serially diluted platelets standardized the assay to quantify the concentration of deposited platelet on ECM.

[4] = test system: recalcified porcine blood; test: Clot formation of recalcified whole blood on ECM grafts
Method: Clot Formation of Recalcified Whole Blood. A recalcified whole blood clotting assay was performed to assess hemocompatibility of ECM grafts treated with or without the addition of heparin, alone or conjugated to CBP/CBPi.^15 Briefly, […] Each sample was weighed before and after incubation with recalcified blood, and the mass of the blood clotted on each sample was calculated and normalized to the weight of the ECM. Each sample containing clotted blood was subsequently embedded in paraffin, sectioned and stained with H&E for microscopic analysis.

rat aorta ECM = test: Heparin deposited and retained on aorta ECM (DMMB GAG assay); type: binding; details: immediately after treatment at 1 mg/mL (t=0)
Method: Heparin Immobilization onto Rat Aorta ECM. All animal experiments and procedures were approved by the Animal Care and Use Committee of Northwestern University and animal care was performed in accordance with the NIH Guide for Care and Use of Laboratory Animals. Male Sprague-Dawley rats weighing 200-250 g (Charles River Laboratories, Chicago, IL) were used as donors to recover the abdominal segment of the aorta. Rat aorta ECM was isolated via decellularization as described 13 using 1% Triton X for 48 h and 1.5% SDS for 48 h at room temperature, followed by 100 U/mL DNase I solution at 37° C. for 4 h. Aorta ECM was subsequently incubated with heparin sodium, CBP-conjugated heparin or CBPi-conjugated heparin (1 mg/mL) overnight at 4° C., followed by three washes with PBS to remove excessive and unbound heparin (FIG. 1B). ECM without heparin incubation served as negative, untreated controls.
Quantification of Heparin Deposited onto ECM. The amount of heparin immobilized onto aorta ECM was quantified using a GAG assay. […] Retention of heparin on ECM after CBP-heparin treatment was assessed by incubating heparinized ECM in endothelial growth medium (EGM-2, Lonza) at 37° C. and measuring the amount of heparin remaining on ECM weekly using a GAG assay. […]

factor Xa = details: unconjugated heparin sodium; cited from earlier work
collagen IV = collagen IV (Mus musculus, UniProt P02463+P08122); test: Peptide binding to ECM protein coated plates (streptavidin-594 fluorescence); design: purchased Sigma-Aldrich; details: 1000 μM biotinylated peptide; relative to background fluorescence at 0 μM
Method: as §1

Chain of collagen IV (P02463 173-1669): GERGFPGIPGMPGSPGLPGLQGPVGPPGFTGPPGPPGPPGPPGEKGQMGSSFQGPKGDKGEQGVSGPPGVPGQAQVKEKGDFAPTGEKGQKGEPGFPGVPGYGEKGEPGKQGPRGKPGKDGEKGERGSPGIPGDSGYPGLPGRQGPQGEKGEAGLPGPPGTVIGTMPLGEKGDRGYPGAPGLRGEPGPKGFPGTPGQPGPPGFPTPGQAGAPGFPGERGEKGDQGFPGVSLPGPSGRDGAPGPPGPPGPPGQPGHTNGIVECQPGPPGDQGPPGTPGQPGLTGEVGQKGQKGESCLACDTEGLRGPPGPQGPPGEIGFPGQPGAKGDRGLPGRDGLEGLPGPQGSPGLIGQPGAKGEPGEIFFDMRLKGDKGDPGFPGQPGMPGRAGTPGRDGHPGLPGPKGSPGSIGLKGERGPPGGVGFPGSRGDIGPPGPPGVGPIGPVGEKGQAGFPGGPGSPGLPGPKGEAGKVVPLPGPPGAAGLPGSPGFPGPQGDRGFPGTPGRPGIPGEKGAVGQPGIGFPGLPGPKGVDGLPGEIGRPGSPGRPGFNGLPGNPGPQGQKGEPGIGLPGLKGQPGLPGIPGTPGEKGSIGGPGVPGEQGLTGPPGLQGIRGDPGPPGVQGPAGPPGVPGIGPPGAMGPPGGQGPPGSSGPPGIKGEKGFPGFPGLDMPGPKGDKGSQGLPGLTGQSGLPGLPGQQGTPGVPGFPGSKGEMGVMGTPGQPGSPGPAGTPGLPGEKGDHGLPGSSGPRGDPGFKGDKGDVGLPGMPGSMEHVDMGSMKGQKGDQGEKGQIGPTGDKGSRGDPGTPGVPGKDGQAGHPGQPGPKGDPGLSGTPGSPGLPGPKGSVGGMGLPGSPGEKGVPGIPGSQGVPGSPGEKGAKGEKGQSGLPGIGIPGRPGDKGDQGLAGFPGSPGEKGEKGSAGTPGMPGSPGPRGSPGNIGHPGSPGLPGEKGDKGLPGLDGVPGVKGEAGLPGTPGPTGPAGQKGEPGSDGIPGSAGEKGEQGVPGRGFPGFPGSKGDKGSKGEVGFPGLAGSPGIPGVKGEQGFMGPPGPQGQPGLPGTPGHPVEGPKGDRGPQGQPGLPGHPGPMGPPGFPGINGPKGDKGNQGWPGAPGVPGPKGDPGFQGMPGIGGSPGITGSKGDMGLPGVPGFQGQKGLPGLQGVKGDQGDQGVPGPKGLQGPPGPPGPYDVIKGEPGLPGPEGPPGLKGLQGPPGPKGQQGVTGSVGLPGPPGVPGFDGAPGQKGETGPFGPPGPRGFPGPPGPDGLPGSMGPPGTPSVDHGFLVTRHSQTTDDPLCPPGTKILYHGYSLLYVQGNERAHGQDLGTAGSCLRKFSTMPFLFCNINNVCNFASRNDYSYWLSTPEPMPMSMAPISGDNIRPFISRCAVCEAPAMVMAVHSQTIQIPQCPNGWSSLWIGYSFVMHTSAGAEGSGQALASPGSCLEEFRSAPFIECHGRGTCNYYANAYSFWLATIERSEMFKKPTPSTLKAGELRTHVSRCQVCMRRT
Chain of collagen IV (P08122 184-1707): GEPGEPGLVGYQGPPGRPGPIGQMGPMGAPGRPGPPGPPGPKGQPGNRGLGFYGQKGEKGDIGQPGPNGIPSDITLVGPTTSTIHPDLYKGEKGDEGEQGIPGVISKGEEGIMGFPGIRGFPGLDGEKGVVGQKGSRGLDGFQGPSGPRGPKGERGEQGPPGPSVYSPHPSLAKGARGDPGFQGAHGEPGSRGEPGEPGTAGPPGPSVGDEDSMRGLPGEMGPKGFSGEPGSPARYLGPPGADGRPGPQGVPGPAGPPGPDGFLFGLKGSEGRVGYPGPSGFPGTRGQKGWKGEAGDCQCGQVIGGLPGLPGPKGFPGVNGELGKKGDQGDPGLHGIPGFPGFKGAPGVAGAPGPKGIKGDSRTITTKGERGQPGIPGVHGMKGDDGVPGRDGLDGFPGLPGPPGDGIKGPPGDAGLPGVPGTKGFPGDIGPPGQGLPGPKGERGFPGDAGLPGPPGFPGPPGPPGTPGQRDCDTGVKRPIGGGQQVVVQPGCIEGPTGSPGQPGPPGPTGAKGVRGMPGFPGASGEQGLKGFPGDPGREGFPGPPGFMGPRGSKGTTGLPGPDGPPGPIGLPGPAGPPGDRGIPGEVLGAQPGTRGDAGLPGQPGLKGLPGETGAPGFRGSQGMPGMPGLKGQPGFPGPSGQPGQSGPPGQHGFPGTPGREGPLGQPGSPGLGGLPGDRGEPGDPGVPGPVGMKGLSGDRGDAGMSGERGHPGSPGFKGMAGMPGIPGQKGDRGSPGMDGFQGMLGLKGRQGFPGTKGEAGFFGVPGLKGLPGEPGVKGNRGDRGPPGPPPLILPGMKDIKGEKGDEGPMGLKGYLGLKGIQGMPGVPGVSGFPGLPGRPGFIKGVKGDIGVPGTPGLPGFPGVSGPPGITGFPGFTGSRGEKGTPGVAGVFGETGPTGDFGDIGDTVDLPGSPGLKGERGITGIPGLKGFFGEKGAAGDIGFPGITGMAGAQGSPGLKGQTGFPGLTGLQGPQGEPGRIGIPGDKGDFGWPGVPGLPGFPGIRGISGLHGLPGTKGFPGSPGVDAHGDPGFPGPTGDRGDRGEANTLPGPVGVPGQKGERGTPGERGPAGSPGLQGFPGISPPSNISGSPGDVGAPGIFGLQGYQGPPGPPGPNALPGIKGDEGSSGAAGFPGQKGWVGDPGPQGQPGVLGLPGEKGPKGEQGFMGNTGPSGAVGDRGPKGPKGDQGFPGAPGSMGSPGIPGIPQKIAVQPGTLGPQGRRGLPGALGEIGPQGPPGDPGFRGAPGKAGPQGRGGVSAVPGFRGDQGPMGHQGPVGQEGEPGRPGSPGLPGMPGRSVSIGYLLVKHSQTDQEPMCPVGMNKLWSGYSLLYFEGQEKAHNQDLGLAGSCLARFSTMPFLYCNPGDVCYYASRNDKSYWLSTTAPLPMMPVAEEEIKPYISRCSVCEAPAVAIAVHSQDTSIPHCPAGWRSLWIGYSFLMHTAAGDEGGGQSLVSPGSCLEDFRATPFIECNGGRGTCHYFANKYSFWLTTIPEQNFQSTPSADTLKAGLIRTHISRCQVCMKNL
T2 sequence (P02454 152-1207 limits assumed): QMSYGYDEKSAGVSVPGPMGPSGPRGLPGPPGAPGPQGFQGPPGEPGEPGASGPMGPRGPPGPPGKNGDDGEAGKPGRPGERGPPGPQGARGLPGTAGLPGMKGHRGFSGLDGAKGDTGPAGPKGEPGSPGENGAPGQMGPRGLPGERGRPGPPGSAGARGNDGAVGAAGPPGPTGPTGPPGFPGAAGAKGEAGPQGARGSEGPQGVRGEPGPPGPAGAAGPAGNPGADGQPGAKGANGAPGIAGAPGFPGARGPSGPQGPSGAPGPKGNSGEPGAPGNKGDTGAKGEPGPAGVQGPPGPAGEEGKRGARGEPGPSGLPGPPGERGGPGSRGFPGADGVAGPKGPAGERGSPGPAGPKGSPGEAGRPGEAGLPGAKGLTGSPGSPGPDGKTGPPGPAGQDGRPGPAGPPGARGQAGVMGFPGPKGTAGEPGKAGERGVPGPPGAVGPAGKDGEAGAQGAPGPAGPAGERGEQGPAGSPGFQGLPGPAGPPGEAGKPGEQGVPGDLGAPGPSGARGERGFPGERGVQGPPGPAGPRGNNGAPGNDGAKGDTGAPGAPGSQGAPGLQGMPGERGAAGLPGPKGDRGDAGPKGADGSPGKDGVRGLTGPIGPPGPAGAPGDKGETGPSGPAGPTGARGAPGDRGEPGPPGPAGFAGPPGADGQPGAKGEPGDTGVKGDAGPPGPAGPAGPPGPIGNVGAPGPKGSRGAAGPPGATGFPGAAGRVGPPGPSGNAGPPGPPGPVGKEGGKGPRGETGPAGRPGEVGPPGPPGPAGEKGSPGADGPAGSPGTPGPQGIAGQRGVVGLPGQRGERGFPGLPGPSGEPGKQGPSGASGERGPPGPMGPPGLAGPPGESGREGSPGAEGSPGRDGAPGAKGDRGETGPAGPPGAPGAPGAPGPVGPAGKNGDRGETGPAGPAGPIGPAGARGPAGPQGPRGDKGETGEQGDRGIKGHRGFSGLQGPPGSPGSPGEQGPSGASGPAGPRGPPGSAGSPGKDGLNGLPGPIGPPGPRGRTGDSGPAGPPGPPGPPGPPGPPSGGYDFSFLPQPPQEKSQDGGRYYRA
T2 sequence (P02466 86-1125 limits assumed): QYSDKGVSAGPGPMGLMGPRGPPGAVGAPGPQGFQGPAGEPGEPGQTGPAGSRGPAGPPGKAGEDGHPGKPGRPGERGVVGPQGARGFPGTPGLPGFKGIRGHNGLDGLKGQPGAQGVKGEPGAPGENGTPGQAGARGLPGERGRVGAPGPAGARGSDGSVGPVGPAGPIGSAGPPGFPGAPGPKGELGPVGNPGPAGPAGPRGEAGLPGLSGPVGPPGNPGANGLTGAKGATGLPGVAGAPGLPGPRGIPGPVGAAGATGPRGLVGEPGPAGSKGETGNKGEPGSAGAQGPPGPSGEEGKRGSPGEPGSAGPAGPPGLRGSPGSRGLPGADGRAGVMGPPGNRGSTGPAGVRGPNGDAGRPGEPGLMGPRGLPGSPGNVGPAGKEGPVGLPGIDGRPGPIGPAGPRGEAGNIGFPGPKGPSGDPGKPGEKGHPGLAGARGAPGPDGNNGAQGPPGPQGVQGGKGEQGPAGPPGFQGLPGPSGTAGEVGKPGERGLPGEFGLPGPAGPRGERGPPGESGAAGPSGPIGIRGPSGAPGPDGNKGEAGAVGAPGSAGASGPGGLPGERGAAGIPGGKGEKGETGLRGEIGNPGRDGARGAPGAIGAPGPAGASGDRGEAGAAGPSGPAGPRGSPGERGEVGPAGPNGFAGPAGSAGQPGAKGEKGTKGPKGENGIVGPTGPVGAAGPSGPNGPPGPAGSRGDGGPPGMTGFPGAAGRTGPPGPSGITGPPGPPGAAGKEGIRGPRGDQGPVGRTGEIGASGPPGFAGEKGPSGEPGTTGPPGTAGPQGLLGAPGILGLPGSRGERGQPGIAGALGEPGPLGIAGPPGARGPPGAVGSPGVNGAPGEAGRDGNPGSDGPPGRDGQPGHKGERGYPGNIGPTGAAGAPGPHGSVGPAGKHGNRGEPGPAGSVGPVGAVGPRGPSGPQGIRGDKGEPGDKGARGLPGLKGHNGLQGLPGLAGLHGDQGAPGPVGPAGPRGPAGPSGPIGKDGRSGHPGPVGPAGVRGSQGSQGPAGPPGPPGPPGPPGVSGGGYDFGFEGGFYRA

Row | Substance | binding to collagen II (collagen II) | binding to fibronectin (fibronectin) | binding to collagen III (collagen III) | binding to collagen I coated surfaces (collagen I) | binding to Matrigel (Matrigel) | binding to laminin (laminin) | colocalization with collagens in decellularized vascular and renal tissue [1] | adherent endothelial cells on ECM grafts [2] | VEGF concentration within ECM grafts [3] [pg/mg ECM] | reduction in the number of adherent platelets compared to PBS-treated ECM (rat platelet rich plasma) [%] | blood clots observed on ECM grafts (H&E) ([4]; decellularized vascular ECM grafts) | mass of clot/mass of ECM×100% ([4]; treated ECM with recalcified blood, 30 min point) [%] | glycosaminoglycan (heparin) content of ECM (rat aorta ECM) [μg GAG/mg ECM] | anti-Factor Xa activity of reference standard (factor Xa) [U/mg] | increase in surface fluorescence intensity on collagen IV coated surface (collagen IV) | adherent endothelial cells on ECM grafts ([2]; listed as BCPi)
1 | CQDSETRTFY (not fully specified; also: biotin, place not given here; listed as Homo sapiens) [CBP] | Neither CBP nor CBPi binds | Neither CBP nor CBPi binds | Neither CBP nor CBPi binds | to a much lesser extent | minimal, through significant, levels of binding | minimal, through significant, levels of binding | colocalized with each subtype but was more prominent around collagen IV | did not preserve endothelial cell adhesion; also recorded: Minimal to no cells remain |  |  |  |  |  |  |  | 
2 | Heparin sodium |  |  |  |  |  |  |  | decreased significantly | 46.5±12.1 | 5.7±6.2 | Thick blood clots | 612.1±126.0 | 2.81±0.19 | 200 |  | 
3 | CDEFQRSTTY [CBPi] | Neither CBP nor CBPi binds | Neither CBP nor CBPi binds | Neither CBP nor CBPi binds |  | minimal, through significant, levels of binding | minimal, through significant, levels of binding |  | did not preserve endothelial cell adhesion |  |  |  |  |  |  | did not result in any increase | Minimal to no cells remain
